In ChEMBL document CHEMBL1151212, “Ananosic acids B and C, two new 18(13-->12)-abeo-lanostane triterpenoids from Kadsura ananosma” (J Nat Prod, 2004):
Converted amounts (≈) assume the structure as drawn.

Experiments:
[1] = test system: HeLa; assay: Cytotoxicity against human HeLa cells assessed as cell viability; type: functional, cell-based
[2] = test system: CCRF-CEM; assay: Cytotoxicity against human CCRF-CEM cells assessed as cell viability; type: functional, cell-based

| SMILES | IC50 [1] | IC50 [2] |
| --- | --- | --- |
| C/C(=C/CC[C@@H](C)C1=C2C(C)C[C@H]3C(=CC[C@H]4C(C)(C)[C@H](O)CC[C@]34C)[C@]2(C)CC1)C(=O)O (stereo partly specified) [ANANOSIC ACID A] | 0.46 µg/mL (≈ 1.01 µM) | 45.4 µg/mL (≈ 99.8 µM) |
| C=C1C[C@H]2C(=CC[C@H]3C(C)(C)[C@H](OC(C)=O)CC[C@]23C)[C@]2(C)CC[C@H]([C@H](C)CC/C=C(/C)C(=O)O)C12 (stereo partly specified) [ANANOSIC ACID B] | 0.54 µg/mL (≈ 1.09 µM) | 49.6 µg/mL (≈ 99.9 µM) |
| C=C1C[C@H]2C(=CC[C@H]3C(C)(C)C(=O)CC[C@]23C)[C@]2(C)CC[C@H]([C@H](C)CC/C=C(/C)C(=O)O)C12 (stereo partly specified) [ANANOSIC ACID C] | 0.48 µg/mL (≈ 1.06 µM) | 45.2 µg/mL (≈ 99.9 µM) |
